Results on one cell line are retold here after the supplement of paper PMC10307832.

What all share (experiment): relative viability (nuclei count vs DMSO), 5 days (fraction); higher = more cells survive
Compound in experiment [1]: C1=CC=C2C(=C1)N=C(S2)C(C#N)C3=NC(=NC=C3)NCCC4=CN=CC=C4 + CC(C)C[C@H](NC(=O)[C@H](Cc1ccccc1)NC(=O)c1cnccn1)B(O)O [Bortezomib] (partner 0.002 µM)
The gist of the method: (§1)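 Five library-drug doses in √10 steps were combined with a fixed anchor-drug dose, or a single drug was given alone, by pin tool to lung cancer cell lines in 1536-well plates the day after seeding. Nuclei were stained and counted after 5 days. Relative viability is the nuclei count in treated wells over that in vehicle wells, taken as the median of duplicate plates.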

Compound in the experiment “NVP-TAE684 + Linsitinib”: COc1cc(N2CCC(N3CCN(C)CC3)CC2)ccc1Nc1ncc(Cl)c(Nc2ccccc2S(=O)(=O)C(C)C)n1 [NVP-TAE684] + C[C@]1(O)C[C@@H](c2nc(-c3ccc4ccc(-c5ccccc5)nc4c3)c3c(N)nccn32)C1 [Linsitinib] (partner 1 µM)
The method, boiled down: as §1

Compound in the experiment “NVP-TAE684 + Alpelisib”: COc1cc(N2CCC(N3CCN(C)CC3)CC2)ccc1Nc1ncc(Cl)c(Nc2ccccc2S(=O)(=O)C(C)C)n1 [NVP-TAE684] + Cc1nc(NC(=O)N2CCC[C@H]2C(N)=O)sc1-c1ccnc(C(C)(C)C(F)(F)F)c1 [Alpelisib] (partner 2 µM)
The method, boiled down: as §1

Compound in the experiment “Vandetanib + Pictilisib”: COc1cc2/c(=N/c3ccc(Br)cc3F)nc[nH]c2cc1OCC1CCN(C)CC1 [Vandetanib] + CS(=O)(=O)N1CCN(Cc2cc3nc(-c4cccc5[nH]ncc45)nc(N4CCOCC4)c3s2)CC1 [Pictilisib] (partner 1 µM)
The gist of the method:
as §1

Regarding UMC-11, the relative viability was found to be 0.458 in experiment [1] (first compound 0.005 µM); 0.695 in experiment [1] (first compound 0.01581 µM); 0.901 in experiment [1] (first compound 0.05 µM); 0.875 in experiment [1] (first compound 0.1581 µM); 0.488 in experiment [1] (first compound 0.5 µM); 1.14 in the experiment with NVP-TAE684 + Linsitinib (first compound 0.2 µM). Also, the relative viability with NVP-TAE684 + Linsitinib (first compound 0.6325 µM) was determined as 0.904; in the experiment with NVP-TAE684 + Linsitinib (first compound 2 µM), 0.282; with NVP-TAE684 + Alpelisib (first compound 0.2 µM), 0.961; with NVP-TAE684 + Alpelisib (first compound 0.6325 µM), 0.915; with NVP-TAE684 + Alpelisib (first compound 2 µM) it was 0.213; with Vandetanib + Pictilisib (first compound 0.02 µM) it was 0.75. In addition, the relative viability was 0.78 in the experiment with Vandetanib + Pictilisib (first compound 0.06325 µM), 0.694 with Vandetanib + Pictilisib (first compound 0.2 µM), 0.667 with Vandetanib + Pictilisib (first compound 0.6325 µM) and 0.857 in the experiment with Vandetanib + Pictilisib (first compound 2 µM).
